Where a name gives a salt, the structure may show the parent alone.
Key:
Format in all cases: cell-based
SHP-1 = test: PTP assay: SHP-1 catalytic activity (pNPP hydrolysis) after treatment of NK-target cell conjugates; conditions: inhibited NK cells (YTS-2DL1 + 221-Cw4), untreated 100±2.8%; 1 μM JAS, 25 μM Y-27
Protocol: YTS-2DL1 cells were pretreated with 25 μM Y-27 or left untreated. Cells were incubated at 37° C. with target cells for 5 min, 1 μM of JAS was added, and samples were incubated for 5 minutes before lysis. IP of SHP-1 was performed, and precipitates were incubated with pNpp. SHP-1 activity was determined by measuring absorbance at 405 nm. The graph represents rates of SHP-1 catalytic activity from three independent experiments.
In FIG. 8E, YTS-2DL1 cells were incubated at 37° C. with 221-Cw4 or Cw7 cells for 5 min, treated with 0.5 μM of CytD or left untreated, and SHP-1 activity was determined as detailed in the Materials and Methods. Graph summarizing percent of relative SHP-1 catalytic activity obtained by four independent experiments. Data are means±SEM.
SHP-1 catalytic activity was determined by measuring the hydrolysis of the exogenous substrate p-Nitrophenyl Phosphate (pNPP) by SHP-1, as previously described. NK cells (2-5×10^6) were incubated with target cells at ratio of 1:1, activated as described above, and lysed with passive ice-cold lysis buffer (1% Brij, 1% n-Octyl-b-D-glucoside, 50 mM Tris-HCl, pH 7.4, 150 mM NaCl, 5 mM ethylenediaminetetraacetic acid, and complete protease inhibitor tablets). Cell lysates were subjected to IP with anti-SHP-1 antibody. […] Reactions were terminated by adding 800 μl 1M NaOH, and SHP-1 activity was determined by measuring absorbance at 405 nm.

SHP-1 conformation = test: YFP-SHP1-CFP FRET sensor analysis of SHP-1 conformation in YTS cells; conditions: inhibitory NKIS (221-Cw4), untreated 11.5±2.5%; 1 μM JAS, 25 μM Y-27
Protocol: Active “open” conformation of SHP-1 results in a large distance between the two fluorescent proteins with no FRET signal. The inactivated, “closed”, conformation of SHP-1 brings the N′- and C′-termini into proximity resulting in high FRET efficiency.
YTS-2DL1 cells transiently expressing YFP-SHP1-CFP were treated with 25 μM Y-27 or left untreated. Cells were incubated on slides with 221-Cw4 or Cw7 target cells expressing mCherry, following 5 min of conjugation at 37° C., cells were treated with 1 μM JAS, and incubated for 5 min before fixation. FRET analysis was performed (see Experimental procedures). […]
FRET was measured by the donor-sensitized acceptor fluorescence technique. Briefly, three sets of filters were used: one optimized for donor fluorescence (excitation, 458 nm, and emission, 465 to 510 nm), a second for acceptor fluorescence (excitation, 514 nm, and emission, 530 to 600 nm), and a third for FRET (excitation, 458 nm; emission, 530 to 600 nm).
FRET correction was performed as previously described. In brief, the non-FRET components were calculated and removed using calibration curves derived from images of single-labeled CFP- or YFP-expressing cells. […] A calibration curve was derived that defined the amount of CFP fluorescence seen in the FRET image as a function of the fluorescence in the CFP image. […]

[1] = test system: myosin light chain (MLC) phosphorylation on Serine 19; test: Immunoblot of myosin light chain phosphorylation with anti-pMLC (Ser19); conditions: 25 μM Y-27 for 15 min
Protocol: YTS-2DL1 cells were treated with 25 μM of Y-27 for 15 min at 37° C., or left untreated. Cells were incubated at 37° C. with […] target cells for 5 min, 1 μM of JAS was added, and cells were incubated for 5 min. Cell lysates were analyzed by IB for phosphorylation of myosin light chain using anti-pMLC (Ser19) antibodies.
For analysis of whole cell lysates, 1-10×10^5 cells were used, and for IP experiments, 10-15×10^6 cells were used. Protein A/G plus-Agarose beads (Santa Cruz Biotechnology) were used for IP. Protein samples were resolved with sodium dodecyl sulfate-polyacrylamide gel electrophoresis (SDS-PAGE), transferred to nitrocellulose membrane, and immunoblotted with the appropriate primary antibodies. Immunoreactive proteins were detected with either anti-mouse or anti-rabbit horseradish peroxidase-coupled secondary antibody followed by detection by enhanced chemiluminescence (PerkinElmer).

## C[C@@H](N)C1CCC(C(=O)Nc2ccncc2)CC1 (stereo partly drawn) [Formula Y-27, 4-[(1R)-1-aminoethyl]-N N-4-pyridinyl-trans-cyclohexanecarboxamide, dihydrochloride]
SHP-1
  SHP-1 catalytic activity: 66.4±1.1%
SHP-1 conformation
  FRET efficiency: 23.2±1.3%
[1]
  MLC phosphorylation (pMLC S19): significant reduction in phosphorylation

Source: US20190343801A1, “COMPOSITIONS AND METHODS FOR CONTROLLING NATURAL KILLER CELL ACTIVATION AND FUNCTION” (BAR ILAN UNIVERSITY, priority 2017, published 2019)
